# Test results as given in PMC11167047 (Cell Death Discovery, 2024).
# Tests used:
# Assay in all cases: kinome screen (33PanQinase)
# Format in all cases: biochemical
# [1] = target: T1, BRK (Homo sapiens, UniProt Q13882)
# T1 construct: purchased Reaction Biology Europe GmbH (formerly ProQinase)
# Experimental: (§1) The Kinome Screening was performed by Reaction Biology Europe GmbH (http://reactionbiology.com; Freiburg i. Br., Germany).
# [2] = target: T2, EPHB4 (Homo sapiens, UniProt P54760)
# T2 construct: purchased Reaction Biology Europe GmbH (formerly ProQinase)
# T2 sequence (P54760 16-987): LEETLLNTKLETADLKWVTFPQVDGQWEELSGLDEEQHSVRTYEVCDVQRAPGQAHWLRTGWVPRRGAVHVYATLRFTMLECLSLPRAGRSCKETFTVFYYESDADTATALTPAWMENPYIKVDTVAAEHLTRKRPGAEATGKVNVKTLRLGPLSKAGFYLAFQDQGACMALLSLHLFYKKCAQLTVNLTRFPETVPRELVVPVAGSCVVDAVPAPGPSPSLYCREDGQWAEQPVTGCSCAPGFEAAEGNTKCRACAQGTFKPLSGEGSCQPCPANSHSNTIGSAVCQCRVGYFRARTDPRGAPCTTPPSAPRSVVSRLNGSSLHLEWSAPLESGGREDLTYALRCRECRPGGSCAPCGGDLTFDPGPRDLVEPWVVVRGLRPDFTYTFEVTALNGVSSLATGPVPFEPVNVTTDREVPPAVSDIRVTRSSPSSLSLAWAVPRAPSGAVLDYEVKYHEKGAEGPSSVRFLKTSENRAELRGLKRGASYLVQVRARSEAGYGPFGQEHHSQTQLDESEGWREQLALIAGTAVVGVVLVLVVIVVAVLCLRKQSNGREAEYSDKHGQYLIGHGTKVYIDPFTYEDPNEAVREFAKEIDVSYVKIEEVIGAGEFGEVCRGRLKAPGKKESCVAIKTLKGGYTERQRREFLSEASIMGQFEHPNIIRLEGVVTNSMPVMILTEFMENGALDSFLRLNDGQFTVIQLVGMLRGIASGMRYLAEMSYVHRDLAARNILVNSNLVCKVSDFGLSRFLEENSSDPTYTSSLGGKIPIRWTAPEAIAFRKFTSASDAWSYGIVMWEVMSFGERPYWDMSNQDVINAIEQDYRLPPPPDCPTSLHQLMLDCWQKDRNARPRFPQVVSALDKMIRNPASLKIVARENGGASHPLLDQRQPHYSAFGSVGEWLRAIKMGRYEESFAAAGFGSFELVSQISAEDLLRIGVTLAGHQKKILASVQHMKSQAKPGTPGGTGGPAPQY
# Experimental: as §1
# [3] = target: T3, FGFR3 (Homo sapiens, UniProt P22607)
# T3 construct: purchased Reaction Biology Europe GmbH (formerly ProQinase)
# Experimental: as §1
# [4] = target: T4, MARK2 (Homo sapiens, UniProt Q7KZI7)
# T4 construct: purchased Reaction Biology Europe GmbH (formerly ProQinase)
# Experimental: as §1
# [5] = target: T5, MEKK2 (Homo sapiens, UniProt Q9Y2U5)
# T5 construct: purchased Reaction Biology Europe GmbH (formerly ProQinase)
# T5 sequence (Q9Y2U5 1-619): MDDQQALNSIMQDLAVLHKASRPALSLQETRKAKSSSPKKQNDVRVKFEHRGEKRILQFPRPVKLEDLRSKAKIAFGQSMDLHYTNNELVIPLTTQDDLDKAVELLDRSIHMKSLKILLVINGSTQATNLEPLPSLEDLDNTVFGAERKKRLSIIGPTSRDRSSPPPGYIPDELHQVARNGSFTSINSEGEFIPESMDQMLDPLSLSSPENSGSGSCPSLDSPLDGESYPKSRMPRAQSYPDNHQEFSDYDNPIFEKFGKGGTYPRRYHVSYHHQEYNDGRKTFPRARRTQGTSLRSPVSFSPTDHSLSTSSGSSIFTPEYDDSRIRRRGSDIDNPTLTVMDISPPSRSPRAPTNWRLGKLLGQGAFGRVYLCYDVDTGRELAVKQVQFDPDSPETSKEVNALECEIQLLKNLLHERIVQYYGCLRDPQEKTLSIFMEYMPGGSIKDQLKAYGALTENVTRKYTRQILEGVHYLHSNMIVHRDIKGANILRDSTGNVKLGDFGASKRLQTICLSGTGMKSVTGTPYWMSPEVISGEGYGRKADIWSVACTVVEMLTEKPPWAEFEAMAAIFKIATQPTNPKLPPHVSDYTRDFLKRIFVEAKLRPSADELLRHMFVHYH
# Experimental: as §1
# [6] = target: T6, MYLK (Homo sapiens, UniProt Q15746)
# T6 construct: purchased Reaction Biology Europe GmbH (formerly ProQinase)
# Experimental: as §1
# [7] = target: T7, PDGFRβ (Homo sapiens, UniProt P09619)
# T7 construct: purchased Reaction Biology Europe GmbH (formerly ProQinase)
# Experimental: as §1
# [8] = target: T8, PKN3 (Homo sapiens, UniProt Q6P5Z2)
# T8 construct: purchased Reaction Biology Europe GmbH (formerly ProQinase)
# Experimental: as §1
# [9] = target: T9, S6K (Homo sapiens, UniProt P23443)
# T9 construct: purchased Reaction Biology Europe GmbH (formerly ProQinase)
# Experimental: as §1
# [10] = target: T10, STK39 (Homo sapiens, UniProt Q9UEW8)
# T10 construct: purchased Reaction Biology Europe GmbH (formerly ProQinase)
# Experimental: as §1
# [11] = target: T11, TIE2 (Homo sapiens, UniProt Q02763)
# T11 construct: purchased Reaction Biology Europe GmbH (formerly ProQinase)
# Experimental: as §1
# T3 sequence (P22607 23-806): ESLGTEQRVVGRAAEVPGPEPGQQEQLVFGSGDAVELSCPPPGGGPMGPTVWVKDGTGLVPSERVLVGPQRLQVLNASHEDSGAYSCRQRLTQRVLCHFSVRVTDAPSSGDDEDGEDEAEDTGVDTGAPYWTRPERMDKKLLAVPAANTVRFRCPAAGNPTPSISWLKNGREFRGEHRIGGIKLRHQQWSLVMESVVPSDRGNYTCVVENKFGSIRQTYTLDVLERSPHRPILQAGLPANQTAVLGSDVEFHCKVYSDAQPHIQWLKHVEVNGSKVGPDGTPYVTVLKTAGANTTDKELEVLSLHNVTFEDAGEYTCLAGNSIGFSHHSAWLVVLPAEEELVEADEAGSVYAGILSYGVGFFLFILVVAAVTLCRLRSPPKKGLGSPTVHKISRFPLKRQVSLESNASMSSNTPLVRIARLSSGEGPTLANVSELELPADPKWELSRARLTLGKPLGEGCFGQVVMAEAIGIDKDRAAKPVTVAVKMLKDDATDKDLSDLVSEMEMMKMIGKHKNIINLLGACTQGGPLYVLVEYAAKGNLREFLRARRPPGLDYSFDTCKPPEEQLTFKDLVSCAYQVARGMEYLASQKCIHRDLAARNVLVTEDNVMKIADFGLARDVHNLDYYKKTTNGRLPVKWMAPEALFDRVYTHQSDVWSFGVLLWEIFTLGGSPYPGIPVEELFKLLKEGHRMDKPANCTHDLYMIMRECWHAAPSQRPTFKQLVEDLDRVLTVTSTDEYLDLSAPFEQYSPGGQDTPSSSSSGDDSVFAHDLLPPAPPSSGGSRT
# T9 sequence (P23443 whole entry): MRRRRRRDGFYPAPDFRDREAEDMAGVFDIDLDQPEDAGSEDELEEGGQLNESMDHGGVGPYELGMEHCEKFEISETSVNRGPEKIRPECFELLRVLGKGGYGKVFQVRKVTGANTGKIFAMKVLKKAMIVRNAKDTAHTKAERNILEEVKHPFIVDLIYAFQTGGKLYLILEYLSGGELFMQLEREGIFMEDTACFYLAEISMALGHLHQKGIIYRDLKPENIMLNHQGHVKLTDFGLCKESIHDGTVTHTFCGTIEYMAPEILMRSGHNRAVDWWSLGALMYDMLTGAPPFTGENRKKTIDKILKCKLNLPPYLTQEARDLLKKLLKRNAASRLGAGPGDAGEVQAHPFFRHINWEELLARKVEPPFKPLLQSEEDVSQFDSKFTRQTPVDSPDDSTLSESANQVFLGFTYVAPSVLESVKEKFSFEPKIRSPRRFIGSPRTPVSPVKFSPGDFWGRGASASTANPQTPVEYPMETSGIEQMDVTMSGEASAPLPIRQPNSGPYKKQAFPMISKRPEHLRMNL
# T7 sequence (P09619 33-1106): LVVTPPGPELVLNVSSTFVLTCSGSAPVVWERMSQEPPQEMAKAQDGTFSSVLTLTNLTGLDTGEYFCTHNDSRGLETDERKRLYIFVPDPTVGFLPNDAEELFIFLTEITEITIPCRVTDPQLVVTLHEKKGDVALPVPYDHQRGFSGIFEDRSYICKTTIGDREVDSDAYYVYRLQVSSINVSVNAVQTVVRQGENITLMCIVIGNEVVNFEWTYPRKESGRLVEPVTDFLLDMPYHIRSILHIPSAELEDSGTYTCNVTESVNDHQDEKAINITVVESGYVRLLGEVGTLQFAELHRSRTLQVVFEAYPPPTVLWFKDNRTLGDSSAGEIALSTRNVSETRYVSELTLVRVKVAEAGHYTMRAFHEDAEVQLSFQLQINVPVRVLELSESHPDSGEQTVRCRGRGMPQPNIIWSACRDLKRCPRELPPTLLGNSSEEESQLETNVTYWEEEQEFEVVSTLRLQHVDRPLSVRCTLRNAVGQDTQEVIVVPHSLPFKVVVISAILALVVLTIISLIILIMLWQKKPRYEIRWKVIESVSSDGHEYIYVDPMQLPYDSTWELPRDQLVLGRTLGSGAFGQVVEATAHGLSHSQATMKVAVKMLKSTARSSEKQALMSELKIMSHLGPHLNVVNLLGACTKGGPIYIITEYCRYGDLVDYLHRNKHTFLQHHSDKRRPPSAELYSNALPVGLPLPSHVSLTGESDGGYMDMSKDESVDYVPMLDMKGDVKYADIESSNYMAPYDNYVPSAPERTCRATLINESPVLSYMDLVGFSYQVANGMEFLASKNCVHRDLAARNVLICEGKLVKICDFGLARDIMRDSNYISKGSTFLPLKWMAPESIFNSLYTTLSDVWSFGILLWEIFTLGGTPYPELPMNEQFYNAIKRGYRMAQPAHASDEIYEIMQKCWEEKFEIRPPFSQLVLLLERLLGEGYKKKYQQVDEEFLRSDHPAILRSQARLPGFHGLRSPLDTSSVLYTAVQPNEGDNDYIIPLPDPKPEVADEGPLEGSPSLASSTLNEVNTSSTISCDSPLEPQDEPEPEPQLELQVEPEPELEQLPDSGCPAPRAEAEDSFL
# T8 sequence (Q6P5Z2 whole entry): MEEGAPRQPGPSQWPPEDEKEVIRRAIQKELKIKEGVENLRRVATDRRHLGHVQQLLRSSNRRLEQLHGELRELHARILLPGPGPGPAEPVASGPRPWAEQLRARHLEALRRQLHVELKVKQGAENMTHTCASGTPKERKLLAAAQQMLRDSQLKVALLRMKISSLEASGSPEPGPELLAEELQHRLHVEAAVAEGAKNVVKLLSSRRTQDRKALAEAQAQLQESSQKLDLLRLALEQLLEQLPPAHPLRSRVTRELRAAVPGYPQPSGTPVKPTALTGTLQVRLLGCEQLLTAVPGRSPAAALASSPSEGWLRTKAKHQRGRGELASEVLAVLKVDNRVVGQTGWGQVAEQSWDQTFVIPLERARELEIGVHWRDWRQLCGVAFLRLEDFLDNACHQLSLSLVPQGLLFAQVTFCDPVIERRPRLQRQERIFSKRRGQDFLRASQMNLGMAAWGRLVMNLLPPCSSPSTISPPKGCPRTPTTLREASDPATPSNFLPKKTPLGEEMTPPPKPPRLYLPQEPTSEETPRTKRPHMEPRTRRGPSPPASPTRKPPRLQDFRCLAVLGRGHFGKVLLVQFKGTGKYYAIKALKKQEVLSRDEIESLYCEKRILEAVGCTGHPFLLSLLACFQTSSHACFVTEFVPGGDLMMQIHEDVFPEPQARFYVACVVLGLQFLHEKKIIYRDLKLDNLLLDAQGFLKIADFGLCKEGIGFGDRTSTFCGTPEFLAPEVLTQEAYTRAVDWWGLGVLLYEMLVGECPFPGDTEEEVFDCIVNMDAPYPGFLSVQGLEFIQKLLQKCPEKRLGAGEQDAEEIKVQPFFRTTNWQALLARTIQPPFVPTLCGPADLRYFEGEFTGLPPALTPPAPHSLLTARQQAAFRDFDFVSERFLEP
# T4 sequence (Q7KZI7 whole entry): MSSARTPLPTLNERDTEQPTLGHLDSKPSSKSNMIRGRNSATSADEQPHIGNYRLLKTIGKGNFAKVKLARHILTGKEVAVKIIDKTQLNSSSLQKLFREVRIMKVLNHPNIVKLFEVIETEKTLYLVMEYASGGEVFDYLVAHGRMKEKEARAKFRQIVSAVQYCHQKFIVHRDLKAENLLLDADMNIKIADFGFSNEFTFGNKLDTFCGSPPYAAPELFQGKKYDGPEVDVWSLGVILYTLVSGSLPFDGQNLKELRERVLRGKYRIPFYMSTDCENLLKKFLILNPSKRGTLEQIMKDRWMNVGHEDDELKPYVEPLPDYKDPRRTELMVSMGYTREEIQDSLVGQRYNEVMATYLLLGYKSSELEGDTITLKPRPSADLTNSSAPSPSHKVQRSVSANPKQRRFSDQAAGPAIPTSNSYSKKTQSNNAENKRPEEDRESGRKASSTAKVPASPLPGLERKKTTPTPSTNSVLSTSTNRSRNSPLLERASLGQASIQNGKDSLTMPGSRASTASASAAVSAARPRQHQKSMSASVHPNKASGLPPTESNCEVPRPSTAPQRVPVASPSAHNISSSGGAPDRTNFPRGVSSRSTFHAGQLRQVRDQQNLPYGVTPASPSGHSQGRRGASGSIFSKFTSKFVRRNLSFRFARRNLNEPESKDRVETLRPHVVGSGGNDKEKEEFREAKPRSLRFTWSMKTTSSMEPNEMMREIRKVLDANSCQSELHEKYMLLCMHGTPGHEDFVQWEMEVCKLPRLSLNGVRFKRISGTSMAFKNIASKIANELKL
# T1 sequence (Q13882 whole entry): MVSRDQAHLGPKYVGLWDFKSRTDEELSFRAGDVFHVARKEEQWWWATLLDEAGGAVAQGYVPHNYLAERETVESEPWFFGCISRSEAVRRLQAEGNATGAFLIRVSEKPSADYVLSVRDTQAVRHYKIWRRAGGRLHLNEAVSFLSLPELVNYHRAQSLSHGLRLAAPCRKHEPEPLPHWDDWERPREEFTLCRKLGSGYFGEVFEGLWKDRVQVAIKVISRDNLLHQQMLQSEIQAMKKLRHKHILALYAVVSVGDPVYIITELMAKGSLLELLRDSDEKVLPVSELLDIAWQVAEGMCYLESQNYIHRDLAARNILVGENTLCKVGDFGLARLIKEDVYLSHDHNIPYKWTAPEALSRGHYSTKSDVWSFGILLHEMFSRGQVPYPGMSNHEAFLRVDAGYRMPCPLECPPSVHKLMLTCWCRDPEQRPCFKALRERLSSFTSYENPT
SMILES,residual kinase activity ([1]; 0.3 µM),residual kinase activity ([2]; 0.3 µM),residual kinase activity ([3]; 0.3 µM),residual kinase activity ([4]; 0.3 µM),residual kinase activity ([5]; 0.3 µM),residual kinase activity ([6]; 0.3 µM),residual kinase activity ([7]; 0.3 µM),residual kinase activity ([8]; 0.3 µM),residual kinase activity ([9]; 0.3 µM),residual kinase activity ([10]; 0.3 µM),residual kinase activity ([11]; 0.3 µM),other results
c1ccc(CNc2cc(-c3c[nH]c4ncccc34)ccn2)cc1 [meriolin 36],66 % of control,110 % of control,64 % of control,98 % of control,66 % of control,62 % of control,24 % of control,27 % of control,82 % of control,40 % of control,113 % of control,residual kinase activity ([1]; 3 µM): 18 % of control; residual kinase activity ([2]; 3 µM): 85 % of control; residual kinase activity ([3]; 3 µM): 20 % of control; residual kinase activity ([4]; 3 µM): 63 % of control; residual kinase activity ([5]; 3 µM): 18 % of control; residual kinase activity ([6]; 3 µM): 25 % of control; residual kinase activity ([7]; 3 µM): 4 % of control; residual kinase activity ([8]; 3 µM): 3 % of control; residual kinase activity ([9]; 3 µM): 37 % of control; residual kinase activity ([10]; 3 µM): 19 % of control; residual kinase activity ([11]; 3 µM): 65 % of control
COc1ccnc2[nH]cc(-c3cc(N)nc(N)c3)c12 [meriolin 16],85 % of control,90 % of control,84 % of control,88 % of control,91 % of control,71 % of control,75 % of control,74 % of control,84 % of control,66 % of control,105 % of control,residual kinase activity ([1]; 0.03 µM): 91 % of control; residual kinase activity ([2]; 0.03 µM): 97 % of control; residual kinase activity ([3]; 0.03 µM): 93 % of control; residual kinase activity ([4]; 0.03 µM): 91 % of control; residual kinase activity ([5]; 0.03 µM): 95 % of control; residual kinase activity ([6]; 0.03 µM): 103 % of control; residual kinase activity ([7]; 0.03 µM): 93 % of control; residual kinase activity ([8]; 0.03 µM): 83 % of control; residual kinase activity ([9]; 0.03 µM): 99 % of control; residual kinase activity ([10]; 0.03 µM): 77 % of control; residual kinase activity ([11]; 0.03 µM): 132 % of control
